Results taken from patent US11590116B2 (THERAVANCE BIOPHARMA R&D IP, LLC, priority 2019, dated 2023).
Read-outs that look alike come from different tables or passages of the source.

Experiments:
[1] = target: T1, recombinant human ALK5 (TGF-βR1) protein (Homo sapiens, UniProt P36897); assay: Biochemical ALK5 (TGF-βR1) assay to measure pKi (LANCE Ultra ULight kinase assay); conditions: apparent pKi from pIC50 by Cheng-Prusoff, read-out: ALK5 pKi (converted)
T1 construct: purchased Life Technologies PR9075A
T1 sequence (P36897 34-503): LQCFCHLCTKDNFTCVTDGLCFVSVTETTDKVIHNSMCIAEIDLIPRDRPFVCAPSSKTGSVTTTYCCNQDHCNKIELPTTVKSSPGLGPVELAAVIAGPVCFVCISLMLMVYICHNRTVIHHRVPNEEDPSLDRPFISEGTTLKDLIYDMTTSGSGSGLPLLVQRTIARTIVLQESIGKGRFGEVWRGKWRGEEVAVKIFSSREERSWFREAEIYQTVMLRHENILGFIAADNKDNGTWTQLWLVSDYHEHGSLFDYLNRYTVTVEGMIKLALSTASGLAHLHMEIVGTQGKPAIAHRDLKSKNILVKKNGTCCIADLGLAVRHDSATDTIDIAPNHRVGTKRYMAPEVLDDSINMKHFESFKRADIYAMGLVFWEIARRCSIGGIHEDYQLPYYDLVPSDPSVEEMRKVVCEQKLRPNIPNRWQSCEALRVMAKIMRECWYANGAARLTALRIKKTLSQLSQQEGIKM
Method in brief: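 Compounds (10 μM to 25 pM) were preincubated 60 min at room temperature with enzyme, then reactions were started with ATP (125 μM stock, 5× final) and run 60 min at 37 °C. EDTA-containing Eu-anti-phospho-Topo IIα (Thr1342) antibody stopped the reaction; TR-FRET read at 665 nm. pIC50 from 4-parameter fit, converted to pKi via Cheng-Prusoff.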

[2] = test system: TGF-β-stimulated SMAD3 phosphorylation in BEAS-2B cells; assay: Cellular ALK5 potency assay, inhibition of TGF-β stimulated pSMAD3 formation in BEAS-2B cells; format: cell-based; conditions: Homo sapiens, read-out: BEAS2B pIC50 (converted)
Method in brief: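 BEAS-2B human lung epithelial cells, seeded overnight, were pre-treated with compound in HBSS/25 mM HEPES/1% BSA for 1 h at 37 °C, then stimulated with TGF-β (final 10 ng/mL) for 30 min. Lysates were assayed for pSMAD3 by AlphaLISA; pIC50 came from dose-dependent signal change versus TGF-β-stimulated untreated cells.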

[3] = inhibition of TGF-β stimulated pSMAD3 formation, BEAS-2B cells

| Ki [1] [nM] | SMILES | IC50 [2, 3] [nM] | IC50 ([2]; BEAS-2B) [nM] |
| --- | --- | --- | --- |
| < 0.0316 | Cc1cccc(-c2[nH]cnc2-c2ccc3ncc(-c4cccc(NC5CCNCC5)c4)cc3c2)n1 [Compound 686, N-[3-[6-[5-(6-methyl-2-pyridyl)-1H-imidazol-4-yl]-3-quinolyl]phenyl]piperidin-4-amine] | 25.1 to 158 | – |
| 0.0398 to 0.316 | Cc1cccc(-c2[nH]cnc2-c2ccc3ncc(N4CCN(C)C(CC(=O)OCC5CNC5)C4)cc3c2)n1 (centres unmarked) [Compound 640, azetidin-3-ylmethyl 2-[1-methyl-4-[6-[5-(6-methyl-2-pyridyl)-1H-imidazol-4-yl]-3-quinolyl]piperazin-2-yl]acetate] | 1580 to 10000 | – |
| 0.398 to 3.16 | Cc1cccc(-c2nnn(C)c2-c2ccc3ncc(N4CCCNCC4)cc3c2)n1 [Compound 567, 3-(1,4-diazepan-1-yl)-6-[3-methyl-5-(6-methyl-2-pyridyl)triazol-4-yl]quinoline] | 25.1 to 158 | – |
| < 0.0316 | Cc1nc(-c2n[nH]cc2-c2ccc3ncc(-c4cn5c(n4)CNCC5)cc3n2)ccc1F [Compound 422, 2-[3-(5-fluoro-6-methyl-2-pyridyl)-1H-pyrazol-4-yl]-7-(5,6,7,8-tetrahydroimidazo[1,2-a]pyrazin-2-yl)-1,5-naphthyridine] | 25.1 to 158 | – |
| 0.0398 to 0.316 | Cc1cccc(-c2n[nH]cc2-c2ccc3ncc(-c4nc5n(n4)CCNC5)cc3c2)n1 [Compound 315, 6-[3-(6-methyl-2-pyridyl)-1H-pyrazol-4-yl]-3-(5,6,7,8-tetrahydro-[1,2,4]triazolo[1,5-a]pyrazin-2-yl)quinoline] | 25.1 to 158 | – |
| 0.0398 to 0.316 | COCC1CN(c2cnc3ccc(-c4c[nH]nc4-c4cccc(C)n4)nc3c2)CCN1 (racemic) [Compound 298, 2-[3-(6-methyl-2-pyridyl)-1H-pyrazol-4-yl]-7-[rac-(3R)-3-(methoxymethyl)piperazin-1-yl]-1,5-naphthyridine] | 25.1 to 158 | – |
| 0.0398 to 0.316 | Cc1cccc(-c2[nH]cnc2-c2ccc3ncc(-c4nc(C(=O)OC5CCNCC5)cs4)cc3c2)n1 [Compound 742, 4-piperidyl 2-[6-[5-(6-methyl-2-pyridyl)-1H-imidazol-4-yl]-3-quinolyl]thiazole-4-carboxylate] | 25.1 to 158 | – |
| 0.398 to 3.16 | Cc1cccc(-c2n[nH]cc2-c2ccc3nccc(C(=O)NCCCC[C@H](NC(=O)[C@@H](C)N)C(=O)O)c3n2)n1 (racemic) [Compound 804, rac-(2S)-6-[[6-[3-(6-methyl-2-pyridyl)-1H-pyrazol-4-yl]-1,5-naphthyridine-4-carbonyl]amino]-2-[[rac-(2R)-2-aminopropanoyl]amino]hexanoic acid] | 1580 to 10000 | – |
| < 0.0316 | CNCCn1cc(-c2cnc3ccc(-c4c[nH]nc4-c4cccc(C)n4)cc3c2)cn1 [Compound 589, N-methyl-2-[4-[6-[3-(6-methyl-2-pyridyl)-1H-pyrazol-4-yl]-3-quinolyl]pyrazol-1-yl]ethanamine] | < 20 | – |
| 0.398 to 3.16 | Cc1cccc(-c2n[nH]cc2-c2ccc3ncc(N4C[C@@H]5C[C@H]4CN5)cc3n2)n1 [Compound 220, 7-[(1S,4S)-2,5-diazabicyclo[2.2.1]heptan-2-yl]-2-[3-(6-methyl-2-pyridyl)-1H-pyrazol-4-yl]-1,5-naphthyridine] | 25.1 to 158 | – |
| 0.0398 to 0.316 | Cc1cccc(-c2[nH]ncc2-c2ccc3ncc(OC(=O)[C@H]4C[C@@H](N)C4)cc3c2)n1 [Compound 1032, 6-(5-(6-methylpyridin-2-yl)-1H-pyrazol-4-yl)quinolin-3-yl (1s,3s)-3-aminocyclobutane-1-carboxylate] | – | < 20 |
| 0.0398 to 0.316 | Cc1cccc(-c2[nH]cnc2-c2ccc3ncc(-c4ccc(C(=O)O[C@@H]5CCNC5)cc4)cc3c2)n1 [Compound 716, [(3R)-pyrrolidin-3-yl] 4-[6-[5-(6-methyl-2-pyridyl)-1H-imidazol-4-yl]-3-quinolyl]benzoate] | 25.1 to 158 | – |
| 0.398 to 3.16 | Cc1cccc(-c2n[nH]cc2-c2ccc3nccc(CN4CCC(N5CCOCC5)CC4)c3n2)n1 [Compound 849, 4-[1-[[6-[3-(6-methyl-2-pyridyl)-1H-pyrazol-4-yl]-1,5-naphthyridin-4-yl]methyl]-4-piperidyl]morpholine] | 200 to 1260 | – |
| 0.0398 to 0.316 | Cc1cccc(-c2nnn(C)c2-c2ccc3ncc(NCCN4CCN(C(C)C)CC4)cc3c2)n1 [Compound 244, N-[2-(4-isopropylpiperazin-1-yl)ethyl]-6-[3-methyl-5-(6-methyl-2-pyridyl)triazol-4-yl]quinolin-3-amine] | 25.1 to 158 | – |
| 0.0398 to 0.316 | Cc1cccc(-c2[nH]cnc2-c2ccc3ncc(C(=O)OCCC4CCNC4)cc3c2)n1 (centres unmarked) [Compound 1153, 2-pyrrolidin-3-ylethyl 6-[5-(6-methyl-2-pyridyl)-1H-imidazol-4-yl]quinoline-3-carboxylate] | 25.1 to 158 | – |
| 0.0398 to 0.316 | CC(C)N1CCN(CCNc2cnc3ccc(-c4c[nH]nc4-c4cccc(C(F)(F)F)n4)nc3c2)CC1 [Compound 201, N-(2-(4-isopropylpiperazin-1-yl)ethyl)-6-(3-(6-(trifluoromethyl)pyridin-2-yl)-1H-pyrazol-4-yl)-1,5-naphthyridin-3-amine] | 25.1 to 158 | – |
| 0.0398 to 0.316 | Cc1cccc(-c2[nH]cnc2-c2ccc3ncc(N4CC(N)C4)cc3c2)n1 [Compound 460, 1-[6-[5-(6-methyl-2-pyridyl)-1H-imidazol-4-yl]-3-quinolyl]azetidin-3-amine] | 25.1 to 158 | – |
| 0.398 to 3.16 | COC(Cc1ccnc2ccc(-c3c[nH]nc3-c3cccc(C)n3)nc12)OC [Compound 860, 8-(2,2-dimethoxyethyl)-2-[3-(6-methyl-2-pyridyl)-1H-pyrazol-4-yl]-1,5-naphthyridine] | 25.1 to 158 | – |
| 0.0398 to 0.316 | Cc1cccc(-c2[nH]ncc2-c2ccc3nccc(C(=O)OC4CNC4)c3c2)n1 [Compound 1237, azetidin-3-yl 6-[5-(6-methyl-2-pyridyl)-1H-pyrazol-4-yl]quinoline-4-carboxylate] | 25.1 to 158 | – |
| 0.0398 to 0.316 | Cc1cccc(-c2n[nH]cc2-c2ccc3ncc(-c4ncc5n4CCN5)cc3n2)n1 [Compound 641, 7-(2,3-dihydro-1H-imidazo[1,5-a]imidazol-5-yl)-2-[3-(6-methyl-2-pyridyl)-1H-pyrazol-4-yl]-1,5-naphthyridine] | 25.1 to 158 | – |
| < 0.0316 | Cc1cccc(-c2[nH]nnc2-c2ccc3ncc(-c4cnn(C5CCCNC5)c4)cc3n2)n1 (centres unmarked) [Compound 602, 2-[5-(6-methyl-2-pyridyl)-1H-triazol-4-yl]-7-[1-(3-piperidyl)pyrazol-4-yl]-1,5-naphthyridine] | 200 to 1260 | – |
| 0.0398 to 0.316 | Cc1cccc(-c2[nH]cnc2-c2ccc3ncc(-c4ccnc(C(=O)OC5CNC5)c4)cc3c2)n1 [Compound 1133, azetidin-3-yl 4-[6-[5-(6-methyl-2-pyridyl)-1H-imidazol-4-yl]-3-quinolyl]pyridine-2-carboxylate] | 200 to 1260 | – |
| < 0.0316 | Cc1cccc(-c2nc3ccccn3c2-c2ccc3ncc(-c4cc5n(n4)CCNC5)cc3n2)n1 [Compound 693, 2-[2-(6-methyl-2-pyridyl)imidazo[1,2-a]pyridin-3-yl]-7-(4,5,6,7-tetrahydropyrazolo[1,5-a]pyrazin-2-yl)-1,5-naphthyridine] | < 20 | – |
| 0.0398 to 0.316 | CNCc1c(-c2cn[nH]c2)cnc2ccc(-c3c[nH]nc3-c3cccc(C)n3)cc12 [Compound 471, N-methyl-1-[6-[3-(6-methyl-2-pyridyl)-1H-pyrazol-4-yl]-3-(1H-pyrazol-4-yl)-4-quinolyl]methanamine] | 25.1 to 158 | – |
| 0.0398 to 0.316 | Cc1cccc(-c2[nH]cnc2-c2ccc3ncc(-c4cccc(NC5CNC5)n4)cc3c2)n1 [Compound 180, N-(azetidin-3-yl)-6-[6-[5-(6-methyl-2-pyridyl)-1H-imidazol-4-yl]-3-quinolyl]pyridin-2-amine] | 1580 to 10000 | – |
| 0.0398 to 0.316 | Cc1cccc(-c2[nH]cnc2-c2ccc3ncc(-c4ccc(C(=O)OC5CNC5)cn4)cc3c2)n1 [Compound 1027, azetidin-3-yl 6-[6-[5-(6-methyl-2-pyridyl)-1H-imidazol-4-yl]-3-quinolyl]pyridine-3-carboxylate] | 25.1 to 158 | – |
| 0.0398 to 0.316 | Cc1cccc(-c2n[nH]cc2-c2ccc3ncc(-c4c[nH]nc4C(F)(F)F)cc3n2)n1 [Compound 484, 2-[3-(6-methyl-2-pyridyl)-1H-pyrazol-4-yl]-7-[3-(trifluoromethyl)-1H-pyrazol-4-yl]-1,5-naphthyridine] | < 20 | – |
| 0.0398 to 0.316 | Cc1cccc(-c2[nH]ncc2-c2ccc3nccc(C(=O)OCCN4C[C@@H](C)N[C@@H](C)C4)c3c2)n1 [Compound 1176, 2-[(3R,5S)-3,5-dimethylpiperazin-1-yl]ethyl 6-[5-(6-methyl-2-pyridyl)-1H-pyrazol-4-yl]quinoline-4-carboxylate] | 25.1 to 158 | – |
